Experimental data taken from ChEMBL document CHEMBL1140073, “6-Azido-7-nitro-1,4-dihydroquinoxaline-2,3-dione (ANQX) forms an irreversible bond to the active site of the GluR2 AMPA receptor” (J Med Chem, 2008).

Target: Glutamate receptor 2 (Homo sapiens, UniProt P42262)
Assay: Inhibition of GluR2 receptor

Sequence of Glutamate receptor 2 (P42262 whole entry): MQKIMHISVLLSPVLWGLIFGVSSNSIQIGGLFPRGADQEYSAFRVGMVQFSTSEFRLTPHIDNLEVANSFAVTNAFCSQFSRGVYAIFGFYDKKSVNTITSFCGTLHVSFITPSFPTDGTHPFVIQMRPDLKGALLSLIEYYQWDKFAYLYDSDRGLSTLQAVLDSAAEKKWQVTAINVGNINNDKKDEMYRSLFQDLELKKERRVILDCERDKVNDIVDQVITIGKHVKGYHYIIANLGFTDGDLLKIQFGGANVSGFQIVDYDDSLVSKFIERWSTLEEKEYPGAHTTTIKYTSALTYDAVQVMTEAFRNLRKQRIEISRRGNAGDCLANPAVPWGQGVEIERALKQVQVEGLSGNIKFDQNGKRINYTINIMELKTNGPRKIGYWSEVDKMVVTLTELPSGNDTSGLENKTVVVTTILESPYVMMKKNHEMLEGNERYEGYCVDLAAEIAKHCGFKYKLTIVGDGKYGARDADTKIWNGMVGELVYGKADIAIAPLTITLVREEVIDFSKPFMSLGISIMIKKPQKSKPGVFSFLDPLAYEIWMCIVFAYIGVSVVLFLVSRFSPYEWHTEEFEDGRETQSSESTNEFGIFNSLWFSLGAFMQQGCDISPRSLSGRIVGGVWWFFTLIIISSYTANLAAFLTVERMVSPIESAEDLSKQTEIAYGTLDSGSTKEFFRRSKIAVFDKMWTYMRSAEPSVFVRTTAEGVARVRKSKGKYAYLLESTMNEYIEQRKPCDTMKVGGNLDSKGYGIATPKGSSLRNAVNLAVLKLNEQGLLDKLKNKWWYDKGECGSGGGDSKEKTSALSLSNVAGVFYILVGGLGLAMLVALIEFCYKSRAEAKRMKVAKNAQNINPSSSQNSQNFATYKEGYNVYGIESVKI

Row | IC50 | Structure (SMILES)
1 | 7.6 µM | O=c1[nH]c2cc3no[n+]([O-])c3cc2[nH]c1=O
2 | 1 µM | [N-]=[N+]=Nc1cc2[nH]c(=O)c(=O)[nH]c2cc1[N+](=O)[O-]
